Measurements: patent publication US20240269139A1, “COMPOUNDS FOR TARGETED PROTEIN DEGRADATION OF KINASES” (DANA-FARBER CANCER INSTITUTE, INC., priority 2020, published 2024)
Read-outs that look alike come from different tables or passages of the source.

Key:
[1] = target: T1, extended human kinome (kinase-like proteins) (Homo sapiens, UniProt P54886); assay: Whole cell quantitative proteomics: extended kinome hits; settings: Accession P54886, experiment wp147
T1 sequence (P54886 1-795): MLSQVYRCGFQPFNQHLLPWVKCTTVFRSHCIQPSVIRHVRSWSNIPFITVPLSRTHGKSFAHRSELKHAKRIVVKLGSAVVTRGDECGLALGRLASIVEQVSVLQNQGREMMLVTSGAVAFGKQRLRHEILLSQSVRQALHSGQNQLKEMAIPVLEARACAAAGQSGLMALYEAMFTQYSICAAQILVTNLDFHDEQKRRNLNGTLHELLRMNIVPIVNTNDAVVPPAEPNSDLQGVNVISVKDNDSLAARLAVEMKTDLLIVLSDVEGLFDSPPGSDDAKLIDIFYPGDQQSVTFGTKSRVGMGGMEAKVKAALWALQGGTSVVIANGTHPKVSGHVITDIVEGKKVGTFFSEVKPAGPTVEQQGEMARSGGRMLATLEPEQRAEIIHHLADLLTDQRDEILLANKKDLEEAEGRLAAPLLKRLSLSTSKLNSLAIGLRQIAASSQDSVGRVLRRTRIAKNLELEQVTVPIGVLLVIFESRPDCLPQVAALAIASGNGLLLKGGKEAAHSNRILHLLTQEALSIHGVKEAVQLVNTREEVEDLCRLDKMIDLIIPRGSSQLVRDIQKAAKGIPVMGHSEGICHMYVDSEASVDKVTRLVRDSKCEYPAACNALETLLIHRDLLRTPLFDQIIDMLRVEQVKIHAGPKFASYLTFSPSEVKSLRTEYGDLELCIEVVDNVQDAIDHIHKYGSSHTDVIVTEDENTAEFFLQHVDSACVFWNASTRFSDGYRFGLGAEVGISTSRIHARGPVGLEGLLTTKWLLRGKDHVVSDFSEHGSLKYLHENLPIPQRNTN

[2] = target: T2, protein kinases (human kinome) (Homo sapiens, UniProt Q9NYY8); assay type: cell-based; settings: direction down
T2 sequence (Q9NYY8 1-710): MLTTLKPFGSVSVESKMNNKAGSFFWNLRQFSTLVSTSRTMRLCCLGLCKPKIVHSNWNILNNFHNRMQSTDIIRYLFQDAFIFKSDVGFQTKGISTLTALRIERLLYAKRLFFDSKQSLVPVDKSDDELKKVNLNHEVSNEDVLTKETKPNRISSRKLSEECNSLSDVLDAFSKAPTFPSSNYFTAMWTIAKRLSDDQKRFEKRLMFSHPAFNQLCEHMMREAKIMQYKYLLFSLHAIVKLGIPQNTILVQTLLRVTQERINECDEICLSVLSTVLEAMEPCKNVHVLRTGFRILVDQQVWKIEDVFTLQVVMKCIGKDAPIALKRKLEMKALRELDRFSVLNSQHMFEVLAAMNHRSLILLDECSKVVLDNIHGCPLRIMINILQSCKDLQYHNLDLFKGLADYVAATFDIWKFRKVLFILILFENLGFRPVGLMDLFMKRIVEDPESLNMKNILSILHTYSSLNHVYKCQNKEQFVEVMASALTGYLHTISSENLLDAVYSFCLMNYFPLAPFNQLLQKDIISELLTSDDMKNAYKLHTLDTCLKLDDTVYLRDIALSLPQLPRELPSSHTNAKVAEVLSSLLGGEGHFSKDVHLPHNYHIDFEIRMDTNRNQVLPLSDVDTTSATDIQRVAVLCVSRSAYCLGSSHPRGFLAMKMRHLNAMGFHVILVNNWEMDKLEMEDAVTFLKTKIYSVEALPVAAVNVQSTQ

[3] = target: protein kinases (human kinome) (Homo sapiens, UniProt P11802); assay type: cell-based
protein kinases (human kinome) (Homo sapiens, UniProt P11802), sequence (P11802 whole entry): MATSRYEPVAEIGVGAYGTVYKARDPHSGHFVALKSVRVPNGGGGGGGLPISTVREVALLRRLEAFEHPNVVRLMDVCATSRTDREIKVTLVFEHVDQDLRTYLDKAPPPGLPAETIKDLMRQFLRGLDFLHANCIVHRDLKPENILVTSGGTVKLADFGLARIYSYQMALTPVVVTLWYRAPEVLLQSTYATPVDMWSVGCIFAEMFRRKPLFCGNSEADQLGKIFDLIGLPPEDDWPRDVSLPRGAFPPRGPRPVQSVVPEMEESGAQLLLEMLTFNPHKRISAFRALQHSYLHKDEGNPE

[4] = tested on: protein kinases (human kinome); assay type: cell-based; settings: for logFC of LIMK2: LIMK2 P53671-3; for logFC PDK3: PDK3 (Q15120-2)
[5] = target: protein kinases (human kinome) (Homo sapiens, UniProt P53671); assay type: cell-based; settings: experiment wp137
protein kinases (human kinome) (Homo sapiens, UniProt P53671), sequence (P53671 whole entry): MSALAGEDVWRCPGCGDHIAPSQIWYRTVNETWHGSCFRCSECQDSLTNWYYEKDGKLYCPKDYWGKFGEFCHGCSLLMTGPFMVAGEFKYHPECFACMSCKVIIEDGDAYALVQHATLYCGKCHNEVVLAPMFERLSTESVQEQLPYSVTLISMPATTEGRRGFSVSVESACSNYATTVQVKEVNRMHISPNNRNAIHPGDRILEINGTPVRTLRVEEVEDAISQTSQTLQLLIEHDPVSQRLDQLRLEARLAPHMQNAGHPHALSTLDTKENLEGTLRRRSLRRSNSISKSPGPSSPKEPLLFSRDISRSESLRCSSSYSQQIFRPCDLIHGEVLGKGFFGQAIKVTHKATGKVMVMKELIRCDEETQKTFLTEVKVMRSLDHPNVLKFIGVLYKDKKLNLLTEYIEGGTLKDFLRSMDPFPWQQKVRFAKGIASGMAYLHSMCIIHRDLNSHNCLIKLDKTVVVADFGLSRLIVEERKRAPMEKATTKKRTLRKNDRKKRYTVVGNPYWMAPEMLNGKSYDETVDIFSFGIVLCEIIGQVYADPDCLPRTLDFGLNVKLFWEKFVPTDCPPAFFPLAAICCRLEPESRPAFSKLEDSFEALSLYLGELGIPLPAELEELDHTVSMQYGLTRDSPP

`CC(C)(C)c1nc(-c2cccc(NS(=O)(=O)c3c(F)cccc3F)c2F)c(-c2ccnc(NCCOCCNC(=O)CCOCCOCCNc3cccc4c3C(=O)N(C3CCC(=O)NC3=O)C4=O)n2)s1` (stereo not shown) [DD.03.106] was tested, and the “logFC ALDH18A1” value ([1]; 1 uM) was −0.3463, the “logFC ALDH18A1” value ([1]; 4 uM) was −0.8823 and the “logFC FASTKD2 (Q9NYY8)” value ([2]; Experiment wp147, 2 uM) was −0.3392. For the same molecule, the “logFC FASTKD2 (Q9NYY8)” value ([2]; Experiment wp147, 4 uM) was −0.9073, the “logFC CDK4 (P11802)” value ([3]; experiment wp047) was −0.9277 and the “logFC CDK4 (P11802)” value ([3]; experiment wp137) was −0.8885. The “logFC CDK4 (P11802)” value ([3]; experiment wp147, 1 uM) was −0.6961, the “logFC CDK4 (P11802)” value ([3]; experiment wp147, 2 uM) was −0.9835 and the “logFC CDK4 (P11802)” value ([3]; experiment wp147, 4 uM) was −0.726. For the same molecule, the logFC ([4]; ACAD10 (Q6JQN1-5), experiment wp147, 4 uM) was −0.7404, the “logFC of CDK17” value ([4]; Accession Q00537-2, experiment wp137) was −0.8682 and the “logFC MAP3K20 (Q9NYL2-2)” value ([4]; Experiment wp147, 2 uM) was −0.7388. For the same molecule, the “logFC MAP3K20 (Q9NYL2-2)” value ([4]; Experiment wp147, 4 uM) was −0.4901, the logFC ([4]; GK P32189-3, experiment wp147, 4 uM) was −0.4811 and the logFC ([4]; LIMK2 (P53671-3), experiment wp047, direction down) was −0.962. The logFC ([4]; LIMK2 (P53671-3), experiment wp147, 1 uM, direction down) was −0.8736, the logFC ([4]; LIMK2 (P53671-3), experiment wp147, 2 uM, direction down) was −1.082 and the logFC ([4]; LIMK2 (P53671-3), experiment wp147, 4 uM, direction down) was −0.9319. The “logFC of LIMK2” value ([4]; experiment wp047) was −0.962, the “logFC of LIMK2” value ([4]; experiment wp147, 1 uM) was −0.8736 and the “logFC of LIMK2” value ([4]; experiment wp147, 2 uM) was −1.082. The “logFC of LIMK2” value ([4]; experiment wp147, 4 uM) was −0.9319, the “logFC PDK3” value ([4]; experiment wp137) was −0.3571 and the “logFC PDK3” value ([4]; experiment wp147, 4 uM) was −0.6564. For the same molecule, the “logFC CDK16 (Q00536-2)” value ([4]; experiment wp137) was −1.175, the “logFC PDK3 (Q15120-2)” value ([4]; experiment wp137) was −0.3571 and the “logFC of CDK17 (Q00537-2)” value ([4]; experiment wp137) was −0.8682. The “logFC CDK16 (Q00536-2)” value ([4]; experiment wp147, 1 uM) was −0.5427, the “logFC CDK16 (Q00536-2)” value ([4]; experiment wp147, 2 uM) was −0.5385 and the “logFC MAP3K20 (Q9NYL2-2)” value ([4]; experiment wp147, 2 uM) was −0.7388. The “logFC CDK16 (Q00536-2)” value ([4]; experiment wp147, 4 uM) was −0.4393, the “logFC MAP3K20 (Q9NYL2-2)” value ([4]; experiment wp147, 4 uM) was −0.4901 and the “logFC LIMK2” value ([5]; LIMK2 (P53671), down) was −1.026. For the same molecule, the “logFC of LIMK2” value ([5]; LIMK2 P53671) was −1.026.
